# Data as given in patent publication EP2982368A1, “Small molecule compounds displacing focal adhesion core components” (Universität Konstanz, priority 2014, dated 2016).
# Tests used:
# GFP-FAK MEFs = assay: Cell migration assay (single cell tracking, serum-stimulated); format: cell-based, mouse; conditions: for cell velocity: serum-stimulated
# Protocol: (§1) Image J was used to automatically quantify FAK-containing focal adhesions due to local maxima of fluorescence intensity in the GFP-channel (5 to 70 pixel). The number of cells was automatically counted in the Hoechst channel. To test reproducibility of the system 40 control wells were quantified wherein four positions for each well were imaged. […] GFP-FAK mouse embryonic fibroblasts were seeded on fibronectin and incubated for 1 h with the indicated concentrations of the small compounds, respectively. […] GFP-FAK mouse embryonic fibroblasts were seeded on fibronectin and serum-starved overnight. The indicated concentrations of Mb31 were applied for 30 min. Cells were lysed and analyzed for paxillin and FAK protein level as well as FAK Tyr397 phosphorylation. […] The purified kinase domain of FAK was incubated with increasing amounts of Mb31 for 1 h at 30°C together with poly-Glu-Tyr as a FAK substrate. […] Serum-starved GFP-FAK mouse embryonic fibroblasts were stimulated with normal growth medium and incubated for 5 h with the indicated concentrations of the small molecule compounds, respectively. Cell viability was assessed by MTT assay. […] GFP-FAK MEFs were seeded on fibronectin and serum-starved overnight. Migration was stimulated by replacing the medium with normal growth medium. Migration of single cells was tracked for 8 h in 30 min intervals. Migration was recorded from cells that were cultured without serum (A), with serum (B) or with serum in the presence of 3 µM Mb31 (C). […] (A) GFP-FAK MEFs were seeded and serum-starved as in Figure 10. Cell migration was stimulated with normal growth medium and single cells were tracked for 5 h. […] Mouse embryonic fibroblasts (MEFs) were transfected with talin-mCherry and talin dynamics analyzed in focal adhesions using fluorescence recovery after photobleaching (FRAP). […] (C) Wound closure was microscopically analyzed and evaluated using ImageJ software.
# (§2) To further determine whether Mb31 interferes with cell motility, GFP-FAK MEFs were serum-stimulated and migration was quantified on a single cell basis (Figures 11 and 12). […]
# NIH-v-Src fibroblasts = assay: EGF-stimulated cell migration of transformed cells; format: cell-based; conditions: 10 ng/ml EGF, tracked 6 h before and 6 h after addition
# Protocol: as §1, §2
# FAK = target: T1, FAK (Mus musculus, UniProt P34152); assay: Reversibility of FAK displacement after compound washout; format: cell-based; conditions: 4 µM for 1 h
# T1 construct: expressed in transfected cells; host or cells: FAK-/- (p53-/-) mouse embryonic fibroblasts stably re-expressing GFP-FAK
# Protocol: In order to analyze whether FAK or its binding partner paxillin are degraded after displacement, serum-starved GFP-FAK MEFs were stimulated with normal growth medium in presence of increasing concentrations of Mb31. After 30 min cells were lysed and protein levels were determined by immunoblotting. […] In line with this, in vitro activity of purified FAK kinase domain was not altered in presence of Mb31 (Figure 8). […] Considering, that paxillin and FAK are not degraded in Mb31 treated GFP-FAK MEFs the inventors further investigated whether FAK displacement is reversible. GFP-FAK MEFs were seeded on fibronectin and treated with 4 µM Mb31 for 1 h. Following compound washout, cells were incubated for 1 h and fixed. […] To strengthen the hypothesis of FAK relocalization, in a second approach de novo protein synthesis was blocked with cycloheximide. Again, FAK containing focal adhesions could be clearly identified in the cell periphery.
# MEFs were seeded on fibronectin fragment (4 µg/ml in PBS) in multi-well plates (Greiner Bio-One) and incubated for 4 h to allow spreading. Cells were fixed and permeabilized with MeOH at -20°C after pre-fixation with 4% paraformaldehyde. […] Cells were washed again with PBS to remove excess antibodies and were imaged using a Leica AF6000LX fluorescence microscope. […]
# talin = assay: Talin-mCherry fluorescence recovery after photobleaching (FRAP); format: cell-based, mouse; conditions: 10 µM
# Protocol: Image J was used to automatically quantify FAK-containing focal adhesions due to local maxima of fluorescence intensity in the GFP-channel (5 to 70 pixel). The number of cells was automatically counted in the Hoechst channel. To test reproducibility of the system 40 control wells were quantified wherein four positions for each well were imaged. […] GFP-FAK mouse embryonic fibroblasts were seeded on fibronectin and incubated for 1 h with the indicated concentrations of the small compounds, respectively. […] GFP-FAK mouse embryonic fibroblasts were seeded on fibronectin and serum-starved overnight. The indicated concentrations of Mb31 were applied for 30 min. Cells were lysed and analyzed for paxillin and FAK protein level as well as FAK Tyr397 phosphorylation. […] The purified kinase domain of FAK was incubated with increasing amounts of Mb31 for 1 h at 30°C together with poly-Glu-Tyr as a FAK substrate. […] Cell viability was assessed by MTT assay. […] Migration was recorded from cells that were cultured without serum (A), with serum (B) or with serum in the presence of 3 µM Mb31 (C). […] Mouse embryonic fibroblasts (MEFs) were transfected with talin-mCherry and talin dynamics analyzed in focal adhesions using fluorescence recovery after photobleaching (FRAP). […] (C) Wound closure was microscopically analyzed and evaluated using ImageJ software. […]
# T1 sequence (P34152 whole entry): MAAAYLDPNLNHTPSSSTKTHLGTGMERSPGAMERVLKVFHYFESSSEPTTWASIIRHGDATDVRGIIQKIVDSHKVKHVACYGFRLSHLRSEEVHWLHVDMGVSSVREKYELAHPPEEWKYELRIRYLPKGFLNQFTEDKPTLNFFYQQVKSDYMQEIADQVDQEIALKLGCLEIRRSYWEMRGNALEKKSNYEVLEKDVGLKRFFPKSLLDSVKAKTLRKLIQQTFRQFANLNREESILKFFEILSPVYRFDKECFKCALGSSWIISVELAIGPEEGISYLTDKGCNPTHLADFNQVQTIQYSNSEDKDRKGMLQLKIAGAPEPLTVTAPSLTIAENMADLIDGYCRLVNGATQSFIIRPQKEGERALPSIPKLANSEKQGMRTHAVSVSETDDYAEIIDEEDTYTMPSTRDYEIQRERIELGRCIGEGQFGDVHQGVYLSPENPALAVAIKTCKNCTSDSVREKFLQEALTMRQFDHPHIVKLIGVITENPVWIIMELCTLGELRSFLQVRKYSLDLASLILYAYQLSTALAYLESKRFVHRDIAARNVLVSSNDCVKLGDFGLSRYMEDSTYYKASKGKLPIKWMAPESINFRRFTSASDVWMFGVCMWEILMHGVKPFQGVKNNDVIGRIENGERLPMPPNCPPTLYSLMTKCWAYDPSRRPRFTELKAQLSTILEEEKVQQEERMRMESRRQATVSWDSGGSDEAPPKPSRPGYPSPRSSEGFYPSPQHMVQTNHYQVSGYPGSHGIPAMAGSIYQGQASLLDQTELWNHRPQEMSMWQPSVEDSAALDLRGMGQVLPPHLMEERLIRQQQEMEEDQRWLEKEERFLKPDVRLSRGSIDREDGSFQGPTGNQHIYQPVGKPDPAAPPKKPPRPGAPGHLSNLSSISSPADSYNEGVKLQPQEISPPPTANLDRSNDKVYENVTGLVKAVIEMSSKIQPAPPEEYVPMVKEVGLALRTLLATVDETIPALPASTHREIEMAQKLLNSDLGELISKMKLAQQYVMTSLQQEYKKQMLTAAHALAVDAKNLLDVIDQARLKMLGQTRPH
smiles,measurement,setting,value
"O=[N+]([O-])C=Cc1cc(Br)cs1 [FootLocker 1, 4-bromo-2-(2-nitrovinyl)thiophene]",cell velocity after treatment of migrating cells,"GFP-FAK MEFs; added after 5 h tracking, 3 µM or more, further 5 h",0.11 µm/min
same,cell velocity,GFP-FAK MEFs; 2 µM,0.11 µm/min
same,cell velocity,GFP-FAK MEFs; 3 µM,0.07 µm/min
same,migration of EGF-stimulated cells,NIH-v-Src fibroblasts,efficiently inhibit the migration
same,FAK displacement in treated cells,FAK; before washout,completely displaced
same,FAK localization after compound washout,"FAK; washout, 1 h incubation",FAK relocalized to focal adhesions
same,talin-associated fluorescence recovery at bleached focal adhesions,talin,did not recover
